The values below are quoted from earlier work in publication PMC6400584, “Activation mechanism of ATP-sensitive K^+ channels explored with real-time nucleotide binding” (eLife, 2019).

The target of this data set is T1, SUR1/Kir6.2 (Homo sapiens, UniProt Q09428+Q14654).
T1 construct: expressed in transfected cells; host or cells: HEK-293T
Set-up: method as in Proks et al., 2010. The settings on record: 100 μM in Mg2+-free solutions; wild-type; ref Proks et al., 2010; cited from earlier work.

T1 sequence (Q14654 whole entry): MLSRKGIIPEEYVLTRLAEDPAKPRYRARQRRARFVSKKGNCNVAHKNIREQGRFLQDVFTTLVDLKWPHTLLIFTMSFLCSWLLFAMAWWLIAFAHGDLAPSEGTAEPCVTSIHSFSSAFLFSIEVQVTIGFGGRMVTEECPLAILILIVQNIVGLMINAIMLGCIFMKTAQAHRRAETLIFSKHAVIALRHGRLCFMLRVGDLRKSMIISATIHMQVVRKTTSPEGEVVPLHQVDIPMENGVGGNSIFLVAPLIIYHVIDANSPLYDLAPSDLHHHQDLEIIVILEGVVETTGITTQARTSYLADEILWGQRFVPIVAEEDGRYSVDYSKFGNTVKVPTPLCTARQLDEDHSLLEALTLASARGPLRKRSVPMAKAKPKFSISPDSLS
T1 sequence (Q09428 whole entry): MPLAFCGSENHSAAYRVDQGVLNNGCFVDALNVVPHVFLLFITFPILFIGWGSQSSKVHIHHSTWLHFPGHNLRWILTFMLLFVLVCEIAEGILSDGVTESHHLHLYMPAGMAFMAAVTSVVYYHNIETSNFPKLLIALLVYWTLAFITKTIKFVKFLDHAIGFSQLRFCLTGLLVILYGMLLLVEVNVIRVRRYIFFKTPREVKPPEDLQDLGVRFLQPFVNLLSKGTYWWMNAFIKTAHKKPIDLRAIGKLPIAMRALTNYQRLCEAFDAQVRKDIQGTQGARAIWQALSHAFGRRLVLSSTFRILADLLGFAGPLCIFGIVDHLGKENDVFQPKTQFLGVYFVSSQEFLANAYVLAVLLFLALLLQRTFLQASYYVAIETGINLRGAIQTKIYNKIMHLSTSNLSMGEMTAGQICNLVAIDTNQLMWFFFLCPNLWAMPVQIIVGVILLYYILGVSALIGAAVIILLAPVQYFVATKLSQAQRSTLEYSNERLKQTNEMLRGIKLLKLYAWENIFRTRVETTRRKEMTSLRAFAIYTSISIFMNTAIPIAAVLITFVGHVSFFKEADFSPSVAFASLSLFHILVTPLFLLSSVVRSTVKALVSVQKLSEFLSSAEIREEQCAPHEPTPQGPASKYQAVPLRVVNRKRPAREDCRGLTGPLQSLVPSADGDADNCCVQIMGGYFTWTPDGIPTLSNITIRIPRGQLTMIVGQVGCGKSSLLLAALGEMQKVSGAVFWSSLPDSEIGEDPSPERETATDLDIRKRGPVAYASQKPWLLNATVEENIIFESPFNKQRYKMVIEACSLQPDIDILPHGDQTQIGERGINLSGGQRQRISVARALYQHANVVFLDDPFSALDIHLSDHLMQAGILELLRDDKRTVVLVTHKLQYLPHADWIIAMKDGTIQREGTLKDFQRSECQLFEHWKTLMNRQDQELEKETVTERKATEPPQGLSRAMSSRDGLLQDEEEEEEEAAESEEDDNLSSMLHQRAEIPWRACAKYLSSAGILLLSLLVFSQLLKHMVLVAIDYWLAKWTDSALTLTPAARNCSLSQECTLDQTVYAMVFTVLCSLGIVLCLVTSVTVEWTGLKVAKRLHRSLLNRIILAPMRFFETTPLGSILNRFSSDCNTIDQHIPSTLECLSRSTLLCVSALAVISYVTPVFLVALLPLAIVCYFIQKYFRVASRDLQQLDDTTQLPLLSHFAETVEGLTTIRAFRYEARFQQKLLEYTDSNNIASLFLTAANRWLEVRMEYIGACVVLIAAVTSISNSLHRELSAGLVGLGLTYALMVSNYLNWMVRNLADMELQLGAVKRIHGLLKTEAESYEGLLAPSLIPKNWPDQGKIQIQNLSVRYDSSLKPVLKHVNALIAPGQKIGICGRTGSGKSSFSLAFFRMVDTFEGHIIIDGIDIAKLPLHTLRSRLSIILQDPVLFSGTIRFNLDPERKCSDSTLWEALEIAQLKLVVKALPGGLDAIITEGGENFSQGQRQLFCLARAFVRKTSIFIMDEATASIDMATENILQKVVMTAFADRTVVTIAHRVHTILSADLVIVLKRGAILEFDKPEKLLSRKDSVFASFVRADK

With `Nc1ncnc2c1ncn2[C@@H]1O[C@H](COP(=O)(O)OP(=O)(O)O)[C@@H](O)[C@H]1O` [ADP], the reduction in current is ~ 60%.
